Source: patent US10253045B2, “Crystalline forms of a therapeutic compound and uses thereof” (Kala Pharmaceuticals, Inc., priority 2014, dated 2019)
Converted amounts (≈) assume the structure as drawn.

How the values were obtained:
[1] = Wet milling to nanocrystals: particle size and crystal form stability (XRPD); assay type: physicochemical; settings: XRPD of milled samples compared with neat form
Protocol: Crystalline Forms of Compound 5 were wet-milled in the presence of stabilizers that enable the preparation of mucus-penetrating particles (MPP) or nanocrystals. The same milling process was employed for all samples. Milling media, specifically 0.5 mL bulk volume of 1-mm ceria-stabilized zirconium oxide beads, was added to a glass vial. Approximately 25 mg of Compound 5 Crystalline Form I or Crystalline Form II and 0.475 mL of milling solution, as specified in each example, were then added to the vial yielding a slurry of 5% Compound 5. A magnetic stir bar was used to agitate the beads, stirring at approximately 500 rpm.
Neat Crystalline Form I of Compound 5 synthesized according to Example 1 was wet-milled in the presence of PLURONIC® F127 (also known as Poloxamer 407) or polyvinyl alcohol with an average MW of 31 kDa and average hydrolysis of 88% (PVA), and a buffer.
Loss of crystallinity and possible form change to amorphous and Crystalline Form II occurred during milling.
Neat Crystalline Form II of Compound 5 prepared in accordance with Example 2 was wet-milled the presence of PLURONIC® F127 (also known as Poloxamer 407) and a buffer.
Approximately 100 μL of Sample A was transferred directly onto the surface of the sample XRPD holder, then was allowed to air dry.

[2] = Thermodynamic aqueous solubility; assay type: physicochemical; settings: for Equilibrated form in suspension: XRPD of equilibrated solids after the solubility measurement in water, ambient temperature
Protocol: The thermodynamic solubility values of Compound 5 using Crystalline Forms I and II as starting forms were determined in water. In one vial, 10 mg of Crystalline Form I of Compound 5 and 1 mL of water were stirred at ambient temperature for 24 hours at 400 RPM. In a separate vial, 10 mg of Crystalline Form II of Compound 5 was suspended in 1 mL of water, and then the suspension was stirred at ambient temperature for 48 hours at 200 RPM. The equilibrated solids were then separated by dispensing 500 μL of the suspension into a 1.5-mL centrifuge tube, and then centrifuged for 5 minutes at 13,200 RPM using an Eppendorf 5415D centrifuge. As much of the supernatant as possible was decanted using a Pasteur pipette and dispensed into a new 1.5-mL centrifuge tube. The samples were again centrifuged for 5 minutes at 13,200 RPM using the same instrument. The Compound 5 content and pH values of the supernatant were determined by HPLC and pH meter, respectively. The pH of the supernatant was determined to be 9.16.

SMILES | Stability of crystalline form to the milling process ([1]; listed as Crystalline Form I of Compound 5) | Equilibrated form in suspension [2] | Equilibrated form in suspension ([2]; listed as I) | solubility ([2]; water, 22 °C, pH 9.16, water, thermodynamic from solid, ambient temperature (ca. 22° C.), 10 mg in 1 mL stirred 24 h (Form I) or 48 h (Form II), supernatant pH 9.16, HPLC) | Stability of crystalline form to the milling process ([1]; listed as Crystalline Form II of Compound 5) | Solubility in Water ([2]; water, ambient temperature (ca. 22° C.), 10 mg in 1 mL stirred 24 h (Form I) or 48 h (Form II), supernatant pH 9.16, HPLC)
Cc1cc(C(=O)Nc2cc(Oc3ccc4nc(NC(=O)CCCN5CCC6(CC5)COC6)cn4n3)ccc2C)n(C)n1 [Crystalline Form I, N-(5-((2-(4-(2-oxa-7-azaspiro[3.5]nonan-7-yl)butanamido)imidazo[1,2-b]pyridazin-6-yl)oxy)-2-methylphenyl)-1,3-dimethyl-1H-pyrazole-5-carboxamide] | not stable to the milling process | converted to amorphous | Amorphous | 27.8 µg/mL (≈ 48.5 µM) |  | 
Cc1cc(C(=O)Nc2cc(Oc3ccc4nc(NC(=O)CCCN5CCC6(CC5)COC6)cn4n3)ccc2C)n(C)n1 [Crystalline Form II, N-(5-((2-(4-(2-oxa-7-azaspiro[3.5]nonan-7-yl)butanamido)imidazo[1,2-b]pyridazin-6-yl)oxy)-2-methylphenyl)-1,3-dimethyl-1H-pyrazole-5-carboxamide] |  | stable |  |  | stable to the milling process | 15.76 µg/mL (≈ 27.5 µM)
